The values that follow come from patent US20230399312A1, “SUBSTITUTED PYRIMIDINES AND METHODS OF USE” (THERAVANCE BIOPHARMA R&D IP, LLC, priority 2020, published 2023).

Assay [1] addresses T1, recombinant human ALK5 (TGF-βR1) protein (Homo sapiens, UniProt P36897).
T1 construct: purchased Life Technologies PR9075A
T1 sequence (P36897 34-503): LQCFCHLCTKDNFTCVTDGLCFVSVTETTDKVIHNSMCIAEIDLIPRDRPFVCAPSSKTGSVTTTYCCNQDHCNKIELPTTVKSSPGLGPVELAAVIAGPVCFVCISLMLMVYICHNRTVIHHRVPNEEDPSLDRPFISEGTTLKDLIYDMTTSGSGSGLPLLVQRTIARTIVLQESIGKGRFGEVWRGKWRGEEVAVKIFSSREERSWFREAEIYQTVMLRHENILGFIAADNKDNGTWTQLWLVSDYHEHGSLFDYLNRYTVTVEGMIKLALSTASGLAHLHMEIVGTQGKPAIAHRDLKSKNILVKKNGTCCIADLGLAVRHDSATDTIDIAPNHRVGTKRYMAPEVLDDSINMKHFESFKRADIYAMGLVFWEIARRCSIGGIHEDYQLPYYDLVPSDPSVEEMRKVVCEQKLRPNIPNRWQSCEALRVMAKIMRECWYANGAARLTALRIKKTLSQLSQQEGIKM
Kind of assay: Biochemical ALK5 (TGF-βR1) assay to measure pKi (LANCE Ultra ULight kinase assay). The conditions noted are these: apparent pKi, converted from pIC50 by Cheng-Prusoff. The method in brief: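 Cmpd + enzyme, 60 min RT; ATP from 125 μM (5×) stock, 60 min 37 °C; stop 12 mM EDTA/Eu anti-pThr1342 Topo2α Ab (pH 7.0 buffer); TR-FRET 665 nm. DMSO = max, SD-208 = min signal. 4-PL pIC50 → pKi (Cheng-Prusoff).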
(In general: TR-FRET usually uses a lanthanide donor and a delayed reading to cut background.)

In assay [2] the test system is TGF-β-stimulated SMAD3 phosphorylation in BEAS-2B cells. Kind of assay: Cellular ALK5 potency assay, inhibition of TGF-β stimulated pSMAD3 formation in BEAS-2B cells. Format: cell-based. The conditions noted are these: Homo sapiens, pSMAD3, TGF-β 10 ng/mL, read-out: BEAS2B pIC50 (converted). Put shortly:
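Human lung epithelial BEAS-2B cells were preincubated 1 h at 37 °C with compound in HBSS/HEPES/1% BSA, then stimulated 30 min with 10 ng/mL TGF-β. pSMAD3 in lysates was quantified by AlphaLISA relative to untreated stimulated cells; reported as pIC50.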

pKi: −log10 of the molar value. A value given as a limit tells only on which side of the number the result lay.

By pKi is commonly meant the Ki on a negative log10 scale, so that one unit is a factor of ten.

For `COC(=O)[C@@H]1CN(Cc2ccc(Nc3nccc(Nc4ccnc(-c5cccc(C)n5)n4)n3)cc2)CCN1` [Compound 254, methyl (2S)-4-[[4-[[4-[[2-(6-methyl-2-pyridyl)pyrimidin-4-yl]amino]pyrimidin-2-yl]amino]phenyl]methyl] piperazine-2-carboxylate], the pKi in assay [1] is 9.50 to 10.40. Also, the IC50 in assay [2] was at most 20 nM.
Turning to `Cc1ccc(O)cc1-c1nccc(Nc2ccnc(Nc3ccc(N4CCC(N5CCN(C)CC5)CC4)cc3)n2)n1` [Compound 255, 4-methyl-3-(4-((2-((4-(4-(4-methylpiperazin-1-yl)piperidin-1-yl)phenyl)amino)pyrimidin-4-yl)amino)pyrimidin-2-yl)phenol], the pKi in assay [1] is 8.50 to 9.40. Also, the IC50 in assay [2] is 25.1 to 158 nM.
As to `Cc1cccc(-c2nccc(Nc3ccnc(Nc4nc(C(=O)OCC5CNC5)cs4)n3)n2)n1` [Compound 256, azetidin-3-ylmethyl 2-[[4-[[2-(6-methyl-2-pyridyl)pyrimidin-4-yl]amino]pyrimidin-2-yl]amino]thiazole-4-carboxylate], the pKi in assay [1] was 8.50 to 9.40. Moreover, the IC50 in assay [2] is 200 to 1260 nM.
The corresponding values for `Cc1cccc(-c2nccc(Nc3ccnc(Nc4cccc(C(=O)O[C@H]5CCNC5)c4)n3)n2)n1` [Compound 257, [(3S)-pyrrolidin-3-yl] 3-[[4-[[2-(6-methyl-2-pyridyl)pyrimidin-4-yl]amino]pyrimidin-2-yl]amino]benzoate] are 8.50 to 9.40 and 25.1 to 158 nM.
The corresponding values for `Cc1cccc(-c2nccc(Nc3ccnc(Nc4ccc(C(=O)OC5CNC5)s4)n3)n2)n1` [Compound 258, azetidin-3-yl 5-[[4-[[2-(6-methyl-2-pyridyl)pyrimidin-4-yl]amino]pyrimidin-2-yl]amino]thiophene-2-carboxylate] are 9.50 to 10.40 and 25.1 to 158 nM.
The corresponding values for `Cc1cccc(-c2nccc(Nc3ccnc(Nc4ccc(NCCN)cc4)n3)n2)n1` [Compound 259, N2-[4-(2-aminoethylamino)phenyl]-N4-[2-(6-methyl-2-pyridyl)pyrimidin-4-yl]pyrimidine-2,4-diamine] are 9.50 to 10.40 and 25.1 to 158 nM.
On to `Cc1cccc(-c2nccc(Nc3ccnc(Nc4cccc(C(=O)OC5CNC5)c4)n3)n2)n1` [Compound 260, azetidin-3-yl 3-[[4-[[2-(6-methyl-2-pyridyl)pyrimidin-4-yl]amino]pyrimidin-2-yl]amino]benzoate], for which, in assay [1], the pKi is 9.50 to 10.40. Further, in assay [2], the IC50 is 25.1 to 158 nM.
The corresponding values for `CC(=O)N1CCN(c2ccc(Nc3nccc(Nc4ccnc(-c5cccc(C)n5)n4)n3)cc2)CC1` [Compound 261, 1-[4-[4-[[4-[[2-(6-methyl-2-pyridyl)pyrimidin-4-yl]amino]pyrimidin-2-yl]amino]phenyl]piperazin-1-yl]ethanone] are at least 10.50 and at most 20 nM.
As to `Cc1cccc(-c2nccc(Nc3ccnc(Nc4ccc(CN5CC(C)(N(C)C)C5)cc4)n3)n2)n1` [Compound 262, N2-[4-[[3-(dimethylamino)-3-methyl-azetidin-1-yl]methyl]phenyl]-N4-[2-(6-methyl-2-pyridyl)pyrimidin-4-yl]pyrimidine-2,4-diamine], in assay [1], the pKi is 9.50 to 10.40. For the same compound, the IC50 in assay [2] is 25.1 to 158 nM.
The corresponding values for `Cc1cccc(-c2nccc(Nc3ccnc(Nc4ccc(NCCN5C[C@@H](C)N[C@@H](C)C5)cc4)n3)n2)n1` [Compound 263, N4-[2-(6-methyl-2-pyridyl)pyrimidin-4-yl]-N2-[4-[2-[rac-(3S,5R)-3,5-dimethylpiperazin-1-yl]ethylamino]phenyl] pyrimidine-2,4-diamine] are 9.50 to 10.40 and 25.1 to 158 nM.
For `Cc1cccc(-c2nccc(Nc3ccnc(Nc4ccc(S(=O)(=O)N5CCN(C(C)(C)C)CC5)cc4)n3)n2)n1` [Compound 264, N2-[4-(4-tert-butylpiperazin-1-yl)sulfonylphenyl]-N4-[2-(6-methyl-2-pyridyl)pyrimidin-4-yl]pyrimidine-2,4-diamine], in assay [1], the pKi was 9.50 to 10.40. Besides, the IC50 in assay [2] was 25.1 to 158 nM.
In the case of `Cc1cccc(-c2nccc(Nc3ccnc(Nc4ccc(NC(=O)C5CCNCC5)c(C)c4)n3)n2)n1` [Compound 265, N-[2-methyl-4-[[4-[[2-(6-methyl-2-pyridyl)pyrimidin-4-yl]amino]pyrimidin-2-yl]amino]phenyl]piperidine-4-carboxamide], the negative-log Ki (pKi) in assay [1] was 9.50 to 10.40. Besides, the IC50 in assay [2] was at most 20 nM.
The corresponding values for `Cc1cccc(-c2nccc(Nc3ccnc(Nc4ccc(N5CCN(C)CC5)cn4)n3)n2)n1` [Compound 267, N2-[5-(4-methylpiperazin-1-yl)-2-pyridyl]-N4-[2-(6-methyl-2-pyridyl)pyrimidin-4-yl]pyrimidine-2,4-diamine] are 8.50 to 9.40 and 25.1 to 158 nM.
For `COC(=O)[C@H]1CN(Cc2ccc(Nc3nccc(Nc4ccnc(-c5cccc(C)n5)n4)n3)cc2)CCN1` [Compound 268, methyl (2R)-4-[[4-[[4-[[2-(6-methyl-2-pyridyl)pyrimidin-4-yl]amino]pyrimidin-2-yl]amino]phenyl]methyl] piperazine-2-carboxylate], the pKi in assay [1] was 9.50 to 10.40. In assay [2], the IC50 is at most 20 nM.
For the compound `Cc1cccc(-c2nccc(Nc3ccnc(Nc4ccc(NC(=O)C5CCN(CCN(C)C)CC5)cc4)n3)n2)n1` [Compound 269, 1-[2-(dimethylamino)ethyl]-N-[4-[[4-[[2-(6-methyl-2-pyridyl)pyrimidin-4-yl]amino]pyrimidin-2-yl]amino]phenyl]piperidine-4-carboxamide], in assay [1], the negative logarithm of the Ki (pKi) is 9.50 to 10.40. Besides, the IC50 in assay [2] is 200 to 1260 nM.
For the compound `Cc1cccc(-c2nccc(Nc3ccnc(Nc4ccc(S(=O)(=O)N5CCN(C)CC5)cc4)n3)n2)n1` [Compound 270, N2-[4-(4-methylpiperazin-1-yl)sulfonylphenyl]-N4-[2-(6-methyl-2-pyridyl)pyrimidin-4-yl]pyrimidine-2,4-diamine], the pKi in assay [1] was 9.50 to 10.40. The IC50 in assay [2] is 25.1 to 158 nM.
The corresponding values for `CNC(=O)[C@@H]1CN(Cc2ccc(Nc3nccc(Nc4ccnc(-c5cccc(C)n5)n4)n3)cc2)CCN1` [Compound 271, (2S)-N-methyl-4-[[4-[[4-[[2-(6-methyl-2-pyridyl)pyrimidin-4-yl]amino]pyrimidin-2-yl]amino]phenyl]methyl] piperazine-2-carboxamide] are 9.50 to 10.40 and 25.1 to 158 nM.
The corresponding values for `Cc1cccc(-c2nccc(Nc3ccnc(Nc4ccc(NS(C)(=O)=O)cc4)n3)n2)n1` [Compound 272, N-[4-[[4-[[2-(6-methyl-2-pyridyl)pyrimidin-4-yl]amino]pyrimidin-2-yl]amino]phenyl] methanesulfonamide] are 9.50 to 10.40 and 25.1 to 158 nM.
The corresponding values for `CNCCNS(=O)(=O)c1cccc(Nc2nccc(Nc3ccnc(-c4cccc(C)n4)n3)n2)c1` [Compound 273, N-[2-(methylamino)ethyl]-3-[[4-[[2-(6-methyl-2-pyridyl)pyrimidin-4-yl]amino]pyrimidin-2-yl]amino]benzenesulfonamide] are 9.50 to 10.40 and 25.1 to 158 nM.
Take `Cc1cccc(-c2nccc(Nc3ccnc(Nc4ccc(CN5CCC(C(=O)OCC6CNC6)CC5)cc4)n3)n2)n1` [Compound 275, azetidin-3-ylmethyl 1-[[4-[[4-[[2-(6-methyl-2-pyridyl)pyrimidin-4-yl]amino]pyrimidin-2-yl]amino]phenyl]methyl] piperidine-4-carboxylate]: the pKi in assay [1] is 9.50 to 10.40. In addition, the IC50 in assay [2] is 25.1 to 158 nM.
Turning to `Cc1cccc(-c2nccc(Nc3ccnc(Nc4ccc(NC(=O)N5CCN[C@@H](CO)C5)cc4)n3)n2)n1` [Compound 276, (3R)-3-(hydroxymethyl)-N-[4-[[4-[[2-(6-methyl-2-pyridyl)pyrimidin-4-yl]amino]pyrimidin-2-yl]amino]phenyl]piperazine-1-carboxamide], in assay [1], the negative-log Ki (pKi) was 9.50 to 10.40. Besides, in assay [2], the IC50 is 25.1 to 158 nM.
The corresponding values for `Cc1cccc(-c2nccc(Nc3ccnc(Nc4ccc5c(c4)CC4(CCNC4)C5)n3)n2)n1` (stereo not drawn) [Compound 277, N2-(1,3-dihydrospiro[indene-2,3′-pyrrolidin]-5-yl)-N4-(2-(6-methylpyridin-2-yl)pyrimidin-4-yl)pyrimidine-2,4-diamine] are 9.50 to 10.40 and 25.1 to 158 nM.
The corresponding values for `Cc1cccc(-c2nccc(Nc3ccnc(Nc4ccc(CN5C[C@H]6C[C@@H]5CN6)cc4)n3)n2)n1` [Compound 279, N2-[4-[[(1R,4R)-2,5-diazabicyclo[2.2.1]heptan-2-yl]methyl]phenyl]-N4-[2-(6-methyl-2-pyridyl)pyrimidin-4-yl]pyrimidine-2,4-diamine] are 9.50 to 10.40 and 25.1 to 158 nM.
In the case of `Cc1cccc(-c2nccc(Nc3ccnc(Nc4ccc(CC5CNC5)cc4)n3)n2)n1` [Compound 280, N2-[4-(azetidin-3-ylmethyl)phenyl]-N4-[2-(6-methyl-2-pyridyl)pyrimidin-4-yl]pyrimidine-2,4-diamine], in assay [1], the pKi was 9.50 to 10.40. Moreover, the IC50 in assay [2] is 25.1 to 158 nM.
